Measured values published in patent US10758513B2, “Modulators of mitochondrial protein import” (THE REGENTS OF THE UNIVERSITY OF CALIFORNIA, priority 2011, dated 2020).
≈ marks a conversion by molar mass, not a printed value.

Tests used:
[1] = tested on: Δpdr5Δsnq2 strain overexpressing Erv1; assay: Yeast growth inhibition (MIC50), Δpdr5Δsnq2 strain overexpressing Erv1; format: cell-based; details: Saccharomyces cerevisiae; Δpdr5Δsnq2 overexpressing Erv1 from high copy plasmid
Procedure: For MIC50 analysis in the yeast strains, serial dilution of MitoBloCK-6 (0.5 μl) was pinned into assay plate wells containing 50 μl of yeast (Table 2) in rich ethanol-glycerol media (starting OD600=0.0002). Plates were then incubated at 25° C. in a humidified chamber for 40 hours. Each plate was shaken in a Beckman orbital shaker to resuspend settled cells, and the OD600 in each well was read by a Wallac Victor plate reader (Perkin Elmer).

Erv1 = biological target: T1, Erv1 (Saccharomyces cerevisiae, UniProt P27882); assay: Erv1-His pull-down of partner proteins from mitochondria; format: binding, yeast; details: 50 μM, 30 min
T1 construct: made in house
T1 sequence (P27882 1-189): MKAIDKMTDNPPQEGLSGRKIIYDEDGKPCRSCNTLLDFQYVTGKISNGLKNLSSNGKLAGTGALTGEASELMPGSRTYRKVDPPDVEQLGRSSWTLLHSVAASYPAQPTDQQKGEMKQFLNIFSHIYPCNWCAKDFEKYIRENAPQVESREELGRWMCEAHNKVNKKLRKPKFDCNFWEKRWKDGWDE
Procedure: (A) Mitochondria from a strain expressing C-terminal histidine-tagged Erv1 were incubated with 50 μM MitoBloCK-6 or 1% DMSO for 30 min at 25° C. followed by solubilization in 1% digitonin buffer. As a control, 100 μg of extract was withdrawn (T), and 500 μg lysate was incubated with Ni+^2-agarose beads. The beads were washed and bound proteins (B) were eluted with SDS-PAGE sample buffer. To test effectiveness of binding, 100 μg of the unbound protein fraction (S) was also included. Proteins were analyzed by immunoblotting with polyclonal antibodies against Mia40, Erv1, and cyt c. (B) Recombinant Erv1 was preincubated with MitoBloCK-6 or 1% DMSO for 1 hr at 25° C. and then Erv1 (1 μM) was incubated with reduced Tim13 (15 μM) and Mia40 (1 μM) in a time course assay (Tienson et al., 2009). Aliquots were removed at the indicated times and free thiols on Tim13 were modified with AMS addition. Oxidized and reduced Tim13 were detected by non-reducing SDS-PAGE and immunoblotting with antibodies against Tim13.
MitoBloCK-6 was preincubated with mitochondria isolated from the Erv1-His strain followed by solubilization in 1.0% digitonin and Erv1-His was purified with Ni′ agarose. In DMSO treated cells, a small fraction of the Mia40 and half of the cyt c co-purified with Erv1, as reported previously (Tienson et al., 2009). […]

HSF1 hESCs = assay: Assays in human embryonic stem cells (HSF1); format: cell-based; details: 20 μM; alkaline phosphatase staining
Procedure: Human embryonic stem cell (hESCs) line hSF1 was cultured in Stem Pro SFM (Gibco) supplemented with 10 ng/ml bFGF on Matrigel (BD Biosciences) coated plates under 5% CO2, 95% air. Differentiation involved culturing cells in Stem Pro SFM with 10 μM retinoic acid (Acros Organics) for 4 days. Cells were treated with the specific concentration of the compounds or 1% DMSO as a control. For the induction of apoptosis, cells were exposed to 20 μM actinomycin D (Sigma) with or without 100 μM z-VAD-FMK (MP Biomedical). Following treatment, cells were fixed with 3.7% formaldehyde for indirect immunofluorescence study or lysed with Triton buffer (25 mM Tris-HCl pH 7.5, 150 mM NaCl, 1% Triton X-100, 1 mM EDTA) for analysis by SDS-PAGE. Bright field images were acquired with Exi Blue (QImaging). Immunofluorescent images were acquired with a 63× oil immersion objective on an LSM 5 PASCAL Laser Scanning Microscope (Carl Zeiss). Antibodies against cyt c (BD Pharmingen), Tom20 (Santa Cruz), cleaved caspase-3 (Cell Signaling) and poly (ADP-ribose) polymerase (Cell Signaling) were purchased from the indicated vendors. Alkaline phosphatase activity staining was performed with the leukocyte alkaline phosphatase kit (Sigma) as per manufacturer's protocol. […]

tim23 mutant = assay: Yeast growth inhibition (MIC50), tim23 mutant; format: cell-based; details: Saccharomyces cerevisiae; disrupted for prd5 and snq2
[2] = tested on: tim10-1 tim9S mitochondria; assay: In vitro import of radiolabeled precursors into tim10-1 tim9S mitochondria; format: biochemical, yeast
Procedure: (§1) Prior to import into purified mitochondria, ^35S-methionine and cysteine labeled proteins were generated with TNT Quick Coupled Transcription/Translation kits (Promega) and plasmids carrying the gene of interest. Transcription of genes was driven by either a T7 or SP6 promoter. Import reactions were conducted according to established methods. After frozen mitochondria aliquots were thawed and added to the import buffer at a final concentration of 100 μg/mL, drug or DMSO vehicle was added as indicated. A final vehicle concentration of 1% was used in all experiments. Following 15 minute incubation at 25° C., import reactions were initiated by the addition of […] of translation mix. Aliquots were removed at intervals during the reaction timecourse and import was terminated with either cold buffer, 25 μg/mL trypsin, or a combination of both. If trypsin was added to digest unimported precursor protein, soybean trypsin inhibitor (STI) was subsequently added in excess after 15 minute incubation on ice. After a final recovery of by centrifugation (8,000×g, 5 minutes), mitochondria were disrupted in Laemmli sample buffer. Imports of membrane proteins (AAC, PiC, Tom40, Tim22, and Tim23) included a carbonate extraction step to remove proteins that had not inserted into the membrane (Koehler C M, et al. (1998), Science 279:369-373). Samples from import reaction time points were resolved by SDS polyacrylamide gel electrophoresis (SDSPAGE) and gels were dried prior to exposing to film.

[3] = tested on: tim12-1 mutant mitochondria; assay: In vitro import of AAC into tim12-1 mutant mitochondria; format: biochemical, yeast
Procedure: as §1, with “Samples from import reaction time points were resolved by SDS polyacrylamide gel electrophoresis (SDSPAGE) and gels were dried prior to exposing to film.” left out

Row | Compound | MIC50 [1] [µM] | binding of Mia40 to Erv1 decreased by (Erv1) [%] | binding of cyt c to Erv1 decreased by (Erv1) [%] | time at which hESC viability started to decline (HSF1 hESCs) [h] | MIC50 (tim23 mutant) [µM] | protease sensitivity of AAC precursor ([2]; presence of a membrane potential) | import of Hsp60 (TIM23 pathway) ([2]; tim10-1 tim9S mitochondria) | import of Mia40 (Mia40/Erv1 pathway) ([2]; tim10-1 tim9S mitochondria) | import of Su9-DHFR (TIM23 pathway) ([2]; tim10-1 tim9S mitochondria) | import of Tafazzin ([2]; tim10-1 tim9S mitochondria) | import of Tim9 (Mia40/Erv1 pathway) ([2]; tim10-1 tim9S mitochondria) | import of Tim10 (Mia40/Erv1 pathway) ([2]; tim10-1 tim9S mitochondria) | import of Tim22 ([2]; tim10-1 tim9S mitochondria) | import of Tim23 ([2]; tim10-1 tim9S mitochondria) | import of Tom40 ([2]; tim10-1 tim9S mitochondria) | import of cyt b2-DHFR (TIM23 pathway) ([2]; tim10-1 tim9S mitochondria) | import of phosphate carrier (PiC) ([2]; tim10-1 tim9S mitochondria) | import of AAC ([2]; tim10-1 tim9S mitochondria, 1 μM MitoBloCK-1 or greater) | import of AAC into tim12-1 mutant mitochondria [3]
1 | Oc1c(Cl)cc(Cl)cc1/C=N/c1ccc(Nc2ccccc2)cc1 [MitoBloCK-6] | 28.3 (≈ 10.1 µg/mL) | 75 | 95 | > 5 | – | – | – | – | – | – | – | – | – | – | – | – | – | – | –
2 | NC(=S)N/N=C/c1c(O)c(Br)cc2oc3c(c12)CCCC3 [MitoBloCK-1] | – | – | – | – | > 200 | sensitive to protease | did not impair import | not inhibited | did not impair import | import was inhibited | not inhibited | not inhibited | impaired | but not Tim23 was impaired | inhibited the import | did not impair import | inhibited the import | markedly decreased | did not inhibit the import of AAC
